US8420626B2, “Arene connected polyamine macrocyclic derivatives, preparation methods and pharmaceutical uses thereof” (Beijing Molecule Science and Technology Co., Ltd., priority 2007, dated 2013)
Counter-ions that a name gives are not always drawn. Like-named read-outs stand apart in the source and are kept apart here.

Key:
Format in all cases: cell-based
[1] = tested on: p24 antigens of HIV-1; test: Anti-HIV activity: inhibition of p24 antigen (ELISA)
Procedure: (§1) Per well of polystyrene plate (Immulon IB, Dynex Technology, Chantilly, Va.) was applied with HIV IG (a buffer of 0.085 M sodium carbonate and sodium bicarbonate, pH=9.6), stood at 4° C. over night, washed with PBS-T buffer (0.01 M PBS contains 0.05% Tween-20). The reaction was […] with PBS containing 1% skimmed milk (Bio-Rad Inc., Hercules, Calif.). A virus dissolved product was added to the wells, incubated at 37° C. for 1 hour, and washed. To the washed wells were added anti-P24 mAb (183-12H-5C), biotin labeled antimouse IgG1 (Santa Cruz Biotech., Santa Cruz, Calif.), SA-HRP and TMB successively. The reaction was terminated with 1N H2SO4. The absorption was detected at 450 nm by means of ELISA detector (Ultra 384, Tecan). Recombination protein p24 (US Biological, Swampscott, Mass.) was considered when the response curve of standard dosage was established. The inhibition activity IC50 (half inhibition concentration) values of p24 protein and (cell pathological effect) CPE were calculated by Calcusyn software provided by Sloan-Kettering Cancer Center (New York).
(§2) The inhibition activity (IC50) of pathological effect (CPE) and cytotoxicity (CC50) of p24 antigens and cells of HIV-1 of the compounds of part of examples were shown as follows: […]

[2] = Cytotoxicity (XTT assay); settings: half toxic concentration, incubation 4 days at 37° C.
Procedure: To 100 μl solution per compound on 96 wells cultivation plate at a certain concentration was added the same volume of cells (5×10^5/ml). Incubation was performed at 37° C. for 4 days. To the resultant were added 50 μl XTT solution (1 mg/ml) and 0.02 nM PMS. After the incubation was performed for 4 hours, the absorption was detected at 450 nm by means of ELISA detector. The CC50 (half toxic concentration) value was calculated by Calcusyn software provided by Sloan-Kettering Cancer Center (New York).
as §2

[3] = tested on: HIV-1; test: Anti-HIV activity: inhibition of cell pathological effect (CPE); settings: Human immunodeficiency virus 1; inhibition of cell pathological effect of HIV-1
Procedure: as §1, §2

[4] = Human immunodeficiency virus 1, inhibition of HIV-1 p24 antigen, ELISA at 450 nm, read-out: IC50 (μM) p24

Row | SMILES | IC50 [1, 4] [µM] | CC50 at 4 days [2] [nM] | IC50 [3] [µM] | IC50 ([1]; Human immunodeficiency virus 1, read-out: IC50 (μM) p24) [µM]
1 | Fc1ccc(C(c2cccc(CN3CCCNCCNCCCNCC3)c2)c2cccc(CN3CCCNCCNCCCNCC3)c2)cc1 [Example 4, 3,3′-bis[(1,4,8,11-tetraazacyclotetradecan-1-yl)-methyl]-4″-fluoro-1,1′,1″-triphenylmethane octahydrobromide dihydrate] | 0.32 ± 0.02 | 367000 ± 54000 | 0.42 ± 0.06 | 
2 | Brc1ccc(C(c2ccc(CN3CCCNCCNCCCNCC3)cc2)c2ccc(CN3CCCNCCNCCCNCC3)cc2)cc1 [Example 9, 4,4′-bis[(1,4,8,11-tetraazacyclotetradecan-1-yl)-methyl]-4″-bromo-1,1′,1″-triphenylmethane octahydrobromide dihydrate] | 0.43 ± 0.07 | 65800 ± 7960 | 1.75 ± 0.37 | 
3 | c1ccc(C(c2cccc(CN3CCCNCc4cccc(n4)CNCCC3)c2)c2cccc(CN3CCCNCc4cccc(n4)CNCCC3)c2)cc1 [Example 19, 3,3′-bis{[3,7,11,17-tetraaza-dicyclo[11.3.1]heptadecan-1(16),13(17),14-trien-7-yl]-methyl}-1,1′,1″-triphenyl methane hexahydrobromide dihydrate] | 0.44 ± 0.04 | 14500 ± 1290 | 0.79 ± 0.02 | 
4 | Cc1ccc(C(c2cccc(CN3CCCNCCNCCCNCC3)c2)c2cccc(CN3CCCNCCNCCCNCC3)c2)cc1 [Example 2, 3,3′-bis[(1,4,8,11-tetraazacyclotetradecan-1-yl)-methyl]-4″-methyl-1,1′,1″-triphenylmethane octahydrobromide dihydrate] | 0.17 ± 0.08 | 285000 ± 18800 | 0.48 ± 0.31 | 
5 | Clc1cccc(C(c2cccc(CN3CCCNCc4cccc(n4)CNCCC3)c2)c2cccc(CN3CCCNCc4cccc(n4)CNCCC3)c2)c1 [Example 23, 3,3′-bis{[3,7,11,17-tetraaza-dicyclo[11.3.1]heptadecan-1(16),13(17),14-trien-7-yl]-methyl}-3″-chloro-1,1′,1″-triphenylmethane hexahydrobromide dihydrate] | 0.32 ± 0.05 | 15300 ± 560 | 1.18 ± 0.48 | 
6 | Clc1cccc(C(c2ccc(CN3CCCNCCNCCCNCC3)cc2)c2ccc(CN3CCCNCCNCCCNCC3)cc2)c1 [Example 11, 4,4′-bis[(1,4,8,11-tetraazacyclotetradecan-1-yl)-methyl]-3″-chloro-1,1′,1″-triphenylmethane octahydrobromide dihydrate] | 0.65 ± 0.2 | 67800 ± 13300 | 1.48 ± 0.52 | 
7 | c1ccc(C(c2ccc(CN3CCCNCCNCCCNCC3)cc2)c2ccc(CN3CCCNCCNCCCNCC3)cc2)cc1 [Example 7, 4,4′-bis[(1,4,8,11-tetraazacyclotetradecan-1-yl)-methyl]-1,1′,1″-triphenylmethane octahydrobromide dihydrate] | 0.98 ± 0.12 | 101000 ± 1050 | 2.42 ± 0.4 | 
8 | Cc1ccc(C(c2ccc(CN3CCCNCc4cccc(n4)CNCCC3)cc2)c2ccc(CN3CCCNCc4cccc(n4)CNCCC3)cc2)cc1 [Example 31, 4,4′-bis{[3,7,11,17-tetraaza-dicyclo[11.3.1]heptadecan-1(16),13(17),14-trien-7-yl]-methyl}-4″-methyl-1,1′,1″-triphenylmethane hexahydrobromide dihydrate] | 0.78 ± 0.18 | 39290 ± 80 | 1.07 ± 0.79 | 
9 | c1ccc(C(c2ccc(CN3CCCNCc4cccc(c4)CNCCC3)cc2)c2ccc(CN3CCCNCc4cccc(c4)CNCCC3)cc2)cc1 [Example 25, 4,4′-bis{[3,7,11-triaza-dicyclo[11.3.1]heptadecan-1(16),13(17),14-trien-7-yl]-methyl}-1,1′1″-triphenylmethane hexahydrobromide dihydrate] | 0.55 ± 0.09 | 32500 ± 3270 | 1.87 ± 0.28 | 
10 | Brc1ccc(C(c2cccc(CN3CCCNCCNCCCNCC3)c2)c2cccc(CN3CCCNCCNCCCNCC3)c2)cc1 [Example 3, 3,3′-bis[(1,4,8,11-tetraazacyclotetradecan-1-yl)-methyl]-4″-bromo-1,1′,1″-triphenylmethane octahydrobromide dihydrate] | 0.13 ± 0.01 | 161000 ± 4230 | 0.08 ± 0.04 | 
11 | Fc1ccc(C(c2ccc(CN3CCCNCCNCCCNCC3)cc2)c2ccc(CN3CCCNCCNCCCNCC3)cc2)cc1 [Example 10, 4,4′-bis[(1,4,8,11-tetraazacyclotetradecan-1-yl)-methyl]-4″-fluoro-1,1′,1″-triphenylmethane octahydrobromide dihydrate] | 0.43 ± 0.11 | 91300 ± 8750 | 1.22 ± 0.2 | 
12 | c1ccc(C(c2cccc(CN3CCCNCCNCCCNCC3)c2)c2cccc(CN3CCCNCCNCCCNCC3)c2)cc1 [Example 1, 3,3′-bis[(1,4,8,11-tetraazacyclotetradecan-1-yl)-methyl]-1,1′,1″-triphenylmethane octahydrobromide dihydrate] | 0.13 ± 0.02 | 322000 ± 7130 | 0.41 ± 0.11 | 
13 | Brc1ccc(C(c2ccc(CN3CCCNCc4cccc(n4)CNCCC3)cc2)c2ccc(CN3CCCNCc4cccc(n4)CNCCC3)cc2)cc1 [Example 32, 4,4′-bis{[3,7,11,17-tetraaza-dicyclo[11.3.1]heptadecan-1(16),13(17),14-trien-7-yl]-methyl}-4″-bromo-1,1′,1″-triphenylmethane hexahydrobromide dihydrate] | 0.15 ± 0.02 | 12900 ± 310 | 0.8 ± 0.23 | 
14 | Cc1ccc(C(c2ccc(CN3CCCNCCNCCCNCC3)cc2)c2ccc(CN3CCCNCCNCCCNCC3)cc2)cc1 [Example 8, 4,4′-bis[(1,4,8,11-tetraazacyclotetradecan-1-yl)-methyl]-4″-methyl-1,1′,1″-triphenylmethane octahydrobromide dihydrate] | 0.97 ± 0.14 | 130000 ± 12400 | 2.05 ± 0.58 | 
15 | Clc1cccc(C(c2cccc(CN3CCCNCCNCCCNCC3)c2)c2cccc(CN3CCCNCCNCCCNCC3)c2)c1 [Example 5, 3,3′-bis[(1,4,8,11-tetraazacyclotetradecan-1-yl)-methyl]-3″-chloro-1,1′,1″-triphenylmethane octahydrobromide dihydrate] | 0.35 ± 0.04 | 162000 ± 2690 | 0.23 ± 0.01 | 
16 | c1ccc(C(c2cccc(CN3CCCNCCNCCCNCC3)c2)c2cccc(CN3CCCNCCNCCCNCC3)c2)nc1 [Example 6, 2-{[3,3′-bis[(1,4,8,11-tetraazacyclotetradecan-1-yl)-methyl]-1,1′yl]-diphenyl}methylenepyridyl octahydrobromide dihydrate] | 0.16 ± 0.04 | 377000 ± 34400 | 0.55 ± 0.16 | 
17 | c1ccc(C(c2cccc(CN3CCCNCc4cccc(c4)CNCCC3)c2)c2cccc(CN3CCCNCc4cccc(c4)CNCCC3)c2)cc1 [Example 13, 3,3′-bis{[3,7,11-triaza-dicyclo[11.3.1]heptadecan-1(16),13(17),14-trien-7-yl]-methyl}-1,1′,1″-triphenylmethane hexahydrobromide dihydrate] |  | 12400 ± 3690 | 1.56 ± 0.48 | 0.64 ± 0.08
